# From patent US12071430B2 (The Johns Hopkins University, priority 2011, dated 2024)
# Like-named read-outs stand apart in the source and are kept apart here.
# Experiments:
# [1] = Aqueous solubility test in 0.001N HCl; type: physicochemical; details: 0.001 N HCl aqueous buffer, simulated gastric fluid, kinetic from dmso stock; thermodynamic solubility, HPLC, pH=3, room temperature, 24 h
# Description: (§1) The inhibitory effects of the new analogs on HUVEC proliferation were measured using a [3H]-thymidine incorporation assay. The log P values, used as an indicator of lipophilicity, were calculated using ALOGPS2.1 software. Aqueous solubility is a key physiochemical property relevant for oral absorption. We determined the solubility of each analog in 0.001 N HCl (pH=3), which represents the acidic human gastric fluid.
# Aqueous solubility test. In a 1.5 mL microcentrifuge tube, 2 ul of 10 mM compound stock solution in DMSO was added to 1 mL 0.001N HCl aqueous buffer to obtain saturated solution. The resulting mixture was shaken under 600 rpm for 24 h at room temperature. Then the tube was centrifuged at 13,000 rpm for 5 min to remove the undissolved compound. 100 ul of the supernatant was injected to an Agilent 6120 LC/MS for analysis. The mass spectrometry data was collected under SIM/Scan mode. The ions of compound Exact Mass+1 and Exact Mass+23 were monitored as selected ion monitoring (SIM) for peak area integration. Solubility was calculated according to the concentration standard curve of each compound.
# HUVEC [2] = assay: HUVEC proliferation, [3H]-thymidine incorporation assay; type: cell-based; details: Homo sapiens, mean ± SD, three independent experiments, read-out: HUVEC inhibition IC50
# HUVEC [3] = assay: as above; type: cell-based, human; details: for Proliferation (IC50/IC50 Itra): HUVEC IC50 relative to itraconazole; for IC50: Homo sapiens, HUVEC, [3H]-thymidine incorporation, unit inferred, values in μM, read-out: Proliferation IC50
# Description: as §1
# HUVEC Culture and Proliferation Assays. HUVEC (Lonza) were grown in EGM-2 bullet kit media (Lonza) and used at passage eight or lower. The H thymidine incorporation assays were conducted as previously described. Briefly, cells were seeded on 96-well plate at a concentration of 2000 cells/well and allowed to settle overnight. Drugs were added to each well in triplicate. After 24 hours, cells were treated with 1 μCi of [3H] thymidine for 6 h. Then cells were harvested and transferred to filtermats. The scintillation were counted and IC50 were determined using Prism software (version 6.0).
# CYP3A4 = biological target: T1, CYP3A4 (Homo sapiens, UniProt P08684); assay: CYP3A4 enzyme assay (Vivid CYP3A4 Green Screening Kit); type: in vitro ADME; details: for CYP3A4 Inhibition (compared to intracozanole at 1 um): % enzyme inhibition at 1 uM drug / % enzyme inhibition at 1 uM itraconazole
# T1 construct: purchased ThermoFisher P2857; host or cells: baculosomes (insect-cell microsomes, own knowledge)
# T1 sequence (P08684 whole entry): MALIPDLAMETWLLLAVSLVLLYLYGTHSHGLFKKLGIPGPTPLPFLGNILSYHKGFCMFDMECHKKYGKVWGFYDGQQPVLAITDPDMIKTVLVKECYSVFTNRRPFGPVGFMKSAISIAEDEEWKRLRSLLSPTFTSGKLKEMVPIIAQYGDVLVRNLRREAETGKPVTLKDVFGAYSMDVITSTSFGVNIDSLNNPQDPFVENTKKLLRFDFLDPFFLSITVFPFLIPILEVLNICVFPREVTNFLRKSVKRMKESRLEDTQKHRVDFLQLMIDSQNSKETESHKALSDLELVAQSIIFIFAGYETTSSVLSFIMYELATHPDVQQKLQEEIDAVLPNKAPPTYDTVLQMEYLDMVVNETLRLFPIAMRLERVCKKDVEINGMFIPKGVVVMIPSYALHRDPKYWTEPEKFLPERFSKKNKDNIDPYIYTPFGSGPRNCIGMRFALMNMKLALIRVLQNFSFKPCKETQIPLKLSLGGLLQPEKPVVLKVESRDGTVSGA
# Description: And CYP3A4 inhibition was initially determined using a cell-free fluorescence-based assay at a final concentration of 1 μM (Table 2).
# CYP3A4 enzyme assay. CYP3A4 enzyme activity was tested using Vivid™ CYP3A4 Green Screening Kit (ThermoFisher, #P2857) using the manufacturer's protocol. Briefly, CYP3A4 baculosomes and drugs were incubated 10 min at 37° C. Then Vivid® Substrates were added and the fluorescence (ex/em:485/520) were read every 1 min for 60 minute.
Structure (SMILES),solubility at 24 h [1] [µg/mL],IC50 (HUVEC [2]) [nM],Proliferation (IC50/IC50 Itra) (HUVEC [3]),IC50 (HUVEC [3]) [µM],CYP3A4 Inhibition (compared to intracozanole at 1 um) (CYP3A4),"CYP3A4 inhibition, in words (CYP3A4; dose response or compared with itraconazole)"
"CCC(C)n1ncn(-c2ccc(N3CCN(c4ccc(OC[C@@H]5CO[C@@](Cn6ccnc6)(c6ccc(Cl)cc6Cl)O5)nc4)CC3)cc2)c1=O (stereo partly drawn) [Compound 2, 4-(4-(4-(6-(((2S,4R)-2-((1H-imidazol-1-yl)methyl)-2-(2,4-dichlorophenyl)-1,3-dioxolan-4-yl)methoxy)pyridin-3-yl)piperazin-1-yl)phenyl)-2-(sec-butyl)-2,4-dihydro-3H-1,2,4-triazol-3-one]",6.48,468 ± 42.2,,,,
"CCC(C)n1ncn(-c2ccc(N3CCN(c4ccc(OC[C@@H]5CO[C@@](Cn6ccnc6)(c6ccc(Cl)cc6Cl)O5)cc4)CC3)cn2)c1=O (stereo partly drawn) [Compound 7, 4-(5-(4-(4-(((2S,4R)-2-((1H-imidazol-1-yl)methyl)-2-(2,4-dichlorophenyl)-1,3-dioxolan-4-yl)methoxy)phenyl)piperazin-1-yl)pyridin-2-yl)-2-(sec-butyl)-2,4-dihydro-3H-1,2,4-triazol-3-one]",41.3,636 ± 177,,,,
"CCC(C)n1ncn(-c2ccc(N3CCN(c4ccc(OC[C@@H]5CO[C@@](CBr)(c6ccc(Cl)cc6Cl)O5)cc4)CC3)cc2)c1=O (stereo partly drawn) [Compound 57, 4-(4-(4-(4-(((2S,4R)-2-(bromomethyl)-2-(2,4-dichlorophenyl)-1,3-dioxolan-4-yl)methoxy)phenyl)piperazin-1-yl)phenyl)-1-sec-butyl-1H-1,2,4-triazol-5(4H)-one]",,,3.0,0.569,0.03,
"CCC(C)n1ncn(-c2ccc(N3CCN(c4ccc(OC[C@@H]5CO[C@@](CC)(c6ccc(Cl)cc6Cl)O5)cc4)CC3)cc2)c1=O (stereo partly drawn) [Compound 59, 1-sec-butyl-4-(4-(4-(4-(((2R,4R)-2-(2,4-dichlorophenyl)-2-ethyl-1,3-dioxolan-4-yl)methoxy)phenyl)piperazin-1-yl)phenyl)-1H-1,2,4-triazol-5(4H)-one]",,,2.1,,No inhibition,totally lost CYP3A4 inhibition
"CCC(C)n1ncn(-c2ccc(N3CCN(c4ccc(OC[C@@H]5CO[C@@](Cc6ccccc6)(c6ccc(Cl)cc6Cl)O5)cc4)CC3)cc2)c1=O (stereo partly drawn) [Compound 60, 4-(4-(4-(4-(((2R,4R)-2-benzyl-2-(2,4-dichlorophenyl)-1,3-dioxolan-4-yl)methoxy)phenyl)piperazin-1-yl)phenyl)-1-sec-butyl-1H-1,2,4-triazol-5(4H)-one]",,,3.0,0.513,No inhibition,
"CCC(C)n1ncn(-c2ccc(N3CCN(c4ccc(OC[C@@H]5CO[C@@](CC6CCCC6)(c6ccc(Cl)cc6Cl)O5)cc4)CC3)cc2)c1=O (stereo partly drawn) [Compound 61, 1-sec-butyl-4-(4-(4-(4-(((2R,4R)-2-(cyclopentylmethyl)-2-(2,4-dichlorophenyl)-1,3-dioxolan-4-yl)methoxy)phenyl)piperazin-1-yl)phenyl)-1H-1,2,4-triazol-5(4H)-one]",,,3.0,,No inhibition,
"CCC(C)n1ncn(-c2ccc(N3CCN(c4ccc(OC[C@@H]5COC(c6ccc(Cl)cc6Cl)O5)cc4)CC3)cc2)c1=O (stereo partly drawn) [Compound 62, 1-sec-butyl-4-(4-(4-(4-(((4R)-2-(2,4-dichlorophenyl)-1,3-dioxolan-4-yl)methoxy)phenyl)piperazin-1-yl)phenyl)-1H-1,2,4-triazol-5(4H)-one]",,,1.9,,No inhibition,
"CCC(C)n1ncn(-c2ccc(N3CCN(c4ccc(OC[C@@H]5CO[C@@](CN6CCOCC6)(c6ccc(Cl)cc6Cl)O5)cc4)CC3)cc2)c1=O (stereo partly drawn) [Compound 63, 1-(sec-butyl)-4-(4-(4-(4-(((2S,4R)-2-(2,4-dichlorophenyl)-2-(morpholinomethyl)-1,3-dioxolan-4-yl)methoxy)phenyl)piperazin-1-yl)phenyl)-1H-1,2,4-triazol-5(4H)-one]",,,7.4,,0.20,
"CCC(C)n1ncn(-c2ccc(N3CCN(c4ccc(OC[C@@H]5CO[C@@](CN(C)C)(c6ccc(Cl)cc6Cl)O5)cc4)CC3)cc2)c1=O (stereo partly drawn) [Compound 64, 1-(sec-butyl)-4-(4-(4-(4-(((2S,4R)-2-(2,4-dichlorophenyl)-2-((dimethylamino)methyl)-1,3-dioxolan-4-yl)methoxy)phenyl)piperazin-1-yl)phenyl)-1H-1,2,4-triazol-5(4H)-one]",,,8.8,,No inhibition,
"CCC(C)n1ncn(-c2ccc(N3CCN(c4ccc(OC[C@@H]5CO[C@@](CN6CCN(C)CC6)(c6ccc(Cl)cc6Cl)O5)cc4)CC3)cc2)c1=O (stereo partly drawn) [Compound 65, 1-(sec-butyl)-4-(4-(4-(4-(((2S,4R)-2-(2,4-dichlorophenyl)-2-((4-methylpiperazin-1-yl)methyl)-1,3-dioxolan-4-yl)methoxy)phenyl)piperazin-1-yl)phenyl)-1H-1,2,4-triazol-5(4H)-one]",,,3.8,,0.21,
"CCC(C)n1ncn(-c2ccc(N3CCN(c4ccc(OC[C@@H]5CO[C@@](CN6CCNCC6)(c6ccc(Cl)cc6Cl)O5)cc4)CC3)cc2)c1=O (stereo partly drawn) [Compound 66, 1-(sec-butyl)-4-(4-(4-(4-(((2S,4R)-2-(2,4-dichlorophenyl)-2-(piperazin-1-ylmethyl)-1,3-dioxolan-4-yl)methoxy)phenyl)piperazin-1-yl)phenyl)-1H-1,2,4-triazol-5(4H)-one]",,,2.5,,1.09,
"CCC(C)n1ncn(-c2ccc(N3CCN(c4ccc(OC[C@@H]5CO[C@@](Cn6cncn6)(c6ccc(Cl)cc6Cl)O5)nc4)CC3)cc2)c1=O (stereo partly drawn) [Compound 100, 4-(4-(4-(6-(((2S,4R)-2-((1H-1,2,4-triazol-1-yl)methyl)-2-(2,4-dichlorophenyl)-1,3-dioxolan-4-yl)methoxy)pyridin-3-yl)piperazin-1-yl)phenyl)-2-(sec-butyl)-2,4-dihydro-3H-1,2,4-triazol-3-one]",0.116,687 ± 78.1,,,,
"CCC(C)n1ncn(-c2ccc(N3CCN(c4ccc(OC[C@@H]5CO[C@@](Cn6cncn6)(c6ccc(Cl)cc6Cl)O5)cc4)CC3)nc2)c1=O (stereo partly drawn) [Compound 102, 4-(6-(4-(4-(((2S,4R)-2-((1H-1,2,4-triazol-1-yl)methyl)-2-(2,4-dichlorophenyl)-1,3-dioxolan-4-yl)methoxy)phenyl)piperazin-1-yl)pyridin-3-yl)-2-(sec-butyl)-2,4-dihydro-3H-1,2,4-triazol-3-one]",0.0539,222 ± 23.1,,,,
"CCC(C)n1ncn(-c2ccc(N3CCN(c4ccc(OC[C@@H]5CO[C@@](Cn6cncn6)(c6ccc(Cl)cc6Cl)O5)cc4)CC3)cn2)c1=O (stereo partly drawn) [Compound 103, 4-(5-(4-(4-(((2S,4R)-2-((1H-1,2,4-triazol-1-yl)methyl)-2-(2,4-dichlorophenyl)-1,3-dioxolan-4-yl)methoxy)phenyl)piperazin-1-yl)pyridin-2-yl)-2-(sec-butyl)-2,4-dihydro-3H-1,2,4-triazol-3-one]",0.496,188 ± 17.5,,,,
"CCC(C)n1ncn(-c2ccc(N3CCN(c4ccc(OC[C@@H]5CO[C@@](Cn6cncn6)(c6ccc(Cl)cc6Cl)O5)cc4)CC3)c(F)c2)c1=O (stereo partly drawn) [Compound 104, 4-(4-(4-(4-(((2S,4R)-2-((1H-1,2,4-triazol-1-yl)methyl)-2-(2,4-dichlorophenyl)-1,3-dioxolan-4-yl)methoxy)phenyl)piperazin-1-yl)-3-fluorophenyl)-2-(sec-butyl)-2,4-dihydro-3H-1,2,4-triazol-3-one]",0.0291,128 ± 59.7,,,,
"CCC(C)n1ncn(-c2ccc(N3CCN(c4ccc(OC[C@@H]5CO[C@@](Cn6cncn6)(c6ccc(Cl)cc6Cl)O5)nc4)CC3)c(F)c2)c1=O (stereo partly drawn) [Compound 105, 4-(4-(4-(6-(((2S,4R)-2-((1H-1,2,4-triazol-1-yl)methyl)-2-(2,4-dichlorophenyl)-1,3-dioxolan-4-yl)methoxy)pyridin-3-yl)piperazin-1-yl)-3-fluorophenyl)-2-(sec-butyl)-2,4-dihydro-3H-1,2,4-triazol-3-one]",0.255,446 ± 38.3,,,,
